Measured values from paper PMC5608758, “A brain-targeting lipidated peptide for neutralizing RNA-mediated toxicity in Polyglutamine Diseases” (Scientific Reports, 2017).
“Also recorded” adds a separate entry of the source. Residues, ends and D or L forms follow the SMILES beside them. *: point of attachment. Palmitoyl = CCCCCCCCCCCCCCCC(=O)*

Columns and labels:
[1] = test system: expanded MJD CAG78 RNA; test: Isothermal titration calorimetry binding assay, expanded CAG RNA
Protocol: Experiments were carried out using a MicroCal iTC200 isothermal titration calorimeter (GE Healthcare) at 25 °C. Data were analyzed using the Origin® scientific plotting software version 7 (Microcal Software Inc.). All RNAs and peptides were dissolved in binding buffer (20 mM MOPS, pH 7.0; 300 mM NaCl) and 0.7 mM of peptide was titrated into 0.5 µM of RNA for each experiment. The concentration of RNA was estimated with appropriate extinction coefficients at 260 nm on a Nanodrop 2000 (Thermo Scientific). A reference power of 8 μcal/s was used with an initial 0.5 µl of injection of peptide followed by 2 µl for all subsequent titrations points with a 60 sec initial equilibrium delay and 150 sec pause between injections. The samples were stirred at a speed of 1000 rpm throughout the experiment. The thermal titration data were fitted to the ‘one binding site model’ to determine the dissociation constant (KD). Each experiment was repeated at least 3 times with consistent results obtained.

[2] = test system: wild type Drosophila; test: Egg-to-adult viability of wild type flies; type: in vivo; details: fly food containing 10 or 50 µM peptide, 21.5 °C; 3 independent experiments
Protocol: Flies were raised at 21.5 °C on cornmeal medium supplemented with dry yeast. Fly lines bearing UAS-DsRed CAG0 and UAS-DsRed CAG100 were kind gifts of Professor Nancy Bonini (University of Pennsylvania, USA). The gmr-GAL4 fly line was obtained from Bloomington Drosophila Stock Center. For pseudopupil assay, third instar larvae were fed with various amount of respective peptides dissolved in 2% sucrose solution for 2 hr and then continued to culture in standard fly food at 21.5 °C[38]. Pseudopupil assay was performed on 12 day-old adult flies as mentioned previously. Images were captured by SPOT Insight CCD camera controlled by the SPOT Advanced software (Diagnostic instruments Inc.). Image processing was performed using the Adobe Photoshop CS software (Adobe). Each experiment was repeated at least 3 times (n = 10 fly heads), and consistent results were obtained. […] Viability from egg-to-adult was calculated as the number of adult flies collected divided by the number of eggs examined. […]
viability of wild type Drosophila from egg to adult. […] Viability from egg to adult was calculated as the number of adult flies collected divided by the number of eggs examined. Data are expressed as mean ± S.E.M. for 3 independent experiments. […]

[3] = test system: DsRed CAG0 Drosophila; test: Pseudopupil assay in control flies (toxicity); type: in vivo; details: P3V8 at up to 50 µM
Protocol: Flies were raised at 21.5 °C on cornmeal medium supplemented with dry yeast. Fly lines bearing UAS-DsRed CAG0 and UAS-DsRed CAG100 were kind gifts of Professor Nancy Bonini (University of Pennsylvania, USA). The gmr-GAL4 fly line was obtained from Bloomington Drosophila Stock Center. […] Pseudopupil assay was performed on 12 day-old adult flies as mentioned previously. Images were captured by SPOT Insight CCD camera controlled by the SPOT Advanced software (Diagnostic instruments Inc.). Image processing was performed using the Adobe Photoshop CS software (Adobe). Each experiment was repeated at least 3 times (n = 10 fly heads), and consistent results were obtained. For viability test of wild-type flies from egg to adult stage, eggs born within 5 hr were collected and cultured in fly food containing 10 or 50 μM of respective peptides at 21.5°C. Viability from egg-to-adult was calculated as the number of adult flies collected divided by the number of eggs examined. Each experiment was repeated for three times (at least 130 eggs were examined in each group). Two batches of independently synthesized peptides were used in the experiments.

With Ac-DGKSKGIAYIEFK-NH2 [P3V8] the “improvement of binding affinity for expanded CAG RNA over P3” value ([1]; ITC KD relative to P3) was “more than 20 fold” and the Kd ([1]; ITC, 25 °C, 20 mM MOPS pH 7.0, 300 mM NaCl, 0.7 mM peptide titrated into 0.5 µM MJD CAG78 RNA, one binding site model, mean ± S.E.M., at least 3 independent experiments) was 0.33 ± 0.04 µM.
With `CCCCCCCCCCCCCCCC(=O)N[C@@H](CC(=O)O)C(=O)NCC(=O)N[C@@H](CCCCN)C(=O)N[C@@H](CO)C(=O)N[C@@H](CCCCN)C(=O)NCC(=O)N[C@H](C(=O)N[C@@H](C)C(=O)N[C@@H](Cc1ccc(O)cc1)C(=O)N[C@H](C(=O)N[C@@H](CCC(=O)O)C(=O)N[C@@H](Cc1ccccc1)C(=O)N[C@@H](CCCCN)C(N)=O)[C@@H](C)CC)[C@@H](C)CC` [L1P3V8] (Palmitoyl-DGKSKGIAYIEFK-NH2) the egg-to-adult viability [2] was “did not affect; also recorded: no obvious alteration” and the “toxic effect on control flies” value [3] was “no cytotoxic effects”.
